# Data from patent US12594276B2, “Inhibitors of human immunodeficiency virus replication” (ViiV Healthcare UK (No.5) Limited, priority 2024, dated 2026).
# Key:
# [1] = Compound cytotoxicity, XTT-based colorimetric assay; type: cell-based; details: human; uninfected MT2 cells, day 4, XTT; read-out: CC50
# How it was run: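 CC50 derived from XTT colorimetric signal measured on day 4 in MT2 cells that were not infected. All other steps followed the antiviral assay protocol.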
# [2] = tested on: recombinant NL4-3 virus (nef section replaced with Renilla luciferase gene) in MT-2 cells; experiment: HIV cell culture assay (antiviral activity, luciferase readout); type: cell-based; details: Renilla, NL43, MT-2 cells infected for 4-5 days with recombinant NL4-3 Renilla luciferase virus
# How it was run: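 EC50 was derived by median-effect fitting of Renilla luciferase signal from MT-2 cells. These cells were infected for 4–5 days with NL4-3 reporter virus (nef partly replaced by luciferase; made in 293T cells) in the presence of serially diluted compound. Activity was quantified with a live-cell luciferase substrate.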
Structure (SMILES),CC50 at 4 days [1] [pM],EC50 [2] [pM]
"COCCCn1nc(NS(C)(=O)=O)c2c(Cl)ccc(-n3c([C@H](Cc4cc(F)cc(F)c4)NC(=O)Cn4nc(C5CC5)c5c4C[C@@H]4C[C@H]54)nc4nc(C5(F)CCC(F)(F)CC5)cc(CN5C[C@@H](C)O[C@@H](C)C5)c4c3=O)c21 (atropisomer, axis not shown; (P)) [Example 602, N-[(1S)-1-[(3P)-3-[4-chloro-3-methanesulfonamido-1-(3-methoxypropyl)-1H-indazol-7-yl]-5-{[(2R,6S)-2,6-dimethylmorpholin-4-yl]methyl}-4-oxo-7-(1,4,4-trifluorocyclohexyl)-3H,4H-pyrido[2,3-d]pyrimidin-2-yl]-2-(3,5-difluorophenyl)ethyl]-2-[(2S,4S)-9-cyclopropyl-7,8-diazatricyclo[4.3.0.0^2,^4]nona-1(6),8-dien-7-yl]acetamide]",> 20000,17
"Cc1cc(C2CCC(F)(F)CC2)nc2nc([C@H](Cc3cc(F)cc(F)c3)NC(=O)Cn3nc(C4CC4)c4c3C[C@@H]3C[C@H]43)n(-c3ccc(Cl)c4c(NS(C)(=O)=O)nn(CC(=O)N5C[C@@H](C)O[C@@H](C)C5)c34)c(=O)c12 (atropisomer, axis not shown; (P)) [Example 384, N-[(1S)-1-[(3P)-3-(4-chloro-1-{2-[(2R,6S)-2,6-dimethylmorpholin-4-yl]-2-oxoethyl}-3-methanesulfonamido-1H-indazol-7-yl)-7-(4,4-difluorocyclohexyl)-5-methyl-4-oxo-3H,4H-pyrido[2,3-d]pyrimidin-2-yl]-2-(3,5-difluorophenyl)ethyl]-2-[(2S,4S)-9-cyclopropyl-7,8-diazatricyclo[4.3.0.0^2,^4]nona-1(6),8-dien-7-yl]acetamide]",> 20000,25
"COCCCn1nc(NS(C)(=O)=O)c2c(Cl)ccc(-n3c([C@H](Cc4cc(F)cc(F)c4)NC(=O)Cn4nc(C(F)F)c5c4C(F)(F)[C@@H]4C[C@H]54)nc4nc(C5CCC(F)(F)CC5)cc(CN5CC(C)(C)OC(C)(C)C5)c4c3=O)c21 (atropisomer, axis not shown; (P)) [Example 471, N-[(1S)-1-[(3P)-3-[4-chloro-3-methanesulfonamido-1-(3-methoxypropyl)-1H-indazol-7-yl]-7-(4,4-difluorocyclohexyl)-4-oxo-5-[(2,2,6,6-tetramethylmorpholin-4-yl)methyl]-3H,4H-pyrido[2,3-d]pyrimidin-2-yl]-2-(3,5-difluorophenyl)ethyl]-2-[(2S,4R)-9-(difluoromethyl)-5,5-difluoro-7,8-diazatricyclo[4.3.0.0^2,^4]nona-1(6),8-dien-7-yl]acetamide]",> 20000,38
"Cc1cc(C2CCC(F)(F)CC2)nc2nc([C@H](Cc3cc(F)cc(F)c3)NC(=O)Cn3nc(C(F)F)c4c3C(F)(F)[C@@H]3C[C@H]43)n(-c3ccc(Cl)c4c(NS(C)(=O)=O)nn(CCN5CC(F)(F)C5)c34)c(=O)c12 (atropisomer, axis not shown; (P)) [Example 229, N-[(1S)-1-[(3P)-3-{4-chloro-1-[2-(3,3-difluoroazetidin-1-yl)ethyl]-3-methanesulfonamido-1H-indazol-7-yl}-7-(4,4-difluorocyclohexyl)-5-methyl-4-oxo-3H,4H-pyrido[2,3-d]pyrimidin-2-yl]-2-(3,5-difluorophenyl)ethyl]-2-[(2S,4R)-9-(difluoromethyl)-5,5-difluoro-7,8-diazatricyclo[4.3.0.0^2,4]nona-1(6),8-dien-7-yl]acetamide]",> 50000,13
"Cc1cc(C2CCC(F)(F)CC2)nc2nc([C@H](Cc3cc(F)cc(F)c3)NC(=O)Cn3nc(C4CC4)c4c3C[C@@H]3C[C@H]43)n(-c3ccc(Cl)c4c(NS(C)(=O)=O)nn(CCN5CCCC(F)(F)CC5)c34)c(=O)c12 (atropisomer, axis not shown; (P)) [Example 3, N-[(1S)-1-[(3P)-3-{4-chloro-1-[2-(4,4-difluoroazepan-1-yl)ethyl]-3-methanesulfonamido-1H-indazol-7-yl}-7-(4,4-difluorocyclohexyl)-5-methyl-4-oxo-3H,4H-pyrido[2,3-d]pyrimidin-2-yl]-2-(3,5-difluorophenyl)ethyl]-2-[(2S,4S)-9-cyclopropyl-7,8-diazatricyclo[4.3.0.0^2,^4]nona-1(6),8-dien-7-yl]acetamide]",> 50000,9
"Cc1cc(C2(F)CCC(F)(F)CC2)nc2nc([C@H](Cc3cc(F)cc(F)c3)NC(=O)Cn3nc(C(F)F)c4c3C(F)(F)[C@@H]3C[C@H]43)n(-c3ccc(Cl)c4c(NS(C)(=O)=O)nn(CCN5CC(C)(C)OC(C)(C)C5)c34)c(=O)c12 (atropisomer, axis not shown; (P)) [Example 501, N-[(1S)-1-[(3P)-3-{4-chloro-3-methanesulfonamido-1-[2-(2,2,6,6-tetramethylmorpholin-4-yl)ethyl]-1H-indazol-7-yl}-5-methyl-4-oxo-7-(1,4,4-trifluorocyclohexyl)-3H,4H-pyrido[2,3-d]pyrimidin-2-yl]-2-(3,5-difluorophenyl)ethyl]-2-[(2S,4R)-9-(difluoromethyl)-5,5-difluoro-7,8-diazatricyclo[4.3.0.0^2,^4]nona-1(6),8-dien-7-yl]acetamide]",> 20000,16
"Cc1cc(C2CCC(F)(F)CC2)nc2nc([C@H](Cc3cc(F)cc(F)c3)NC(=O)Cn3nc(C(F)F)c4c3C(F)(F)[C@@H]3C[C@H]43)n(-c3ccc(Cl)c4c(NS(C)(=O)=O)nn(CCN5C[C@@H](F)C[C@H](F)C5)c34)c(=O)c12 (atropisomer, axis not shown; (P)) [Example 446, N-[(1S)-1-[(3P)-3-(4-chloro-1-{2-[(3S,5S)-3,5-difluoropiperidin-1-yl]ethyl}-3-methanesulfonamido-1H-indazol-7-yl)-7-(4,4-difluorocyclohexyl)-5-methyl-4-oxo-3H,4H-pyrido[2,3-d]pyrimidin-2-yl]-2-(3,5-difluorophenyl)ethyl]-2-[(2S,4R)-9-(difluoromethyl)-5,5-difluoro-7,8-diazatricyclo[4.3.0.0^2,^4]nona-1(6),8-dien-7-yl]acetamide]",> 20000,9
"Cc1cc(C2CCC(F)(F)CC2)nc2nc([C@H](Cc3cc(F)cc(F)c3)NC(=O)Cn3nc(C4CC4)c4c3C[C@@H]3C[C@H]43)n(-c3ccc(Cl)c4c(NS(C)(=O)=O)nn([C@H](C)CN5C[C@H](F)C[C@H](F)C5)c34)c(=O)c12 (relative stereo) [Example 732, N-[(1S)-1-[(3P)-3-{4-chloro-1-[(2R)-1-[(3R,5S)-3,5-difluoropiperidin-1-yl]propan-2-yl]-3-methanesulfonamido-1H-indazol-7-yl}-7-(4,4-difluorocyclohexyl)-5-methyl-4-oxo-3H,4H-pyrido[2,3-d]pyrimidin-2-yl]-2-(3,5-difluorophenyl)ethyl]-2-[(2R*,4R*)-9-cyclopropyl-7,8-diazatricyclo[4.3.0.0^2,^4]nona-1(6),8-dien-7-yl]acetamide]",> 20000,13
"Cc1cc(C2(F)CCC(F)(F)CC2)nc2nc([C@H](Cc3cc(F)cc(F)c3)NC(=O)Cn3nc([C@H]4CC4(F)F)c4c3C[C@H]3C[C@@H]43)n(-c3ccc(Cl)c4c(NS(C)(=O)=O)nn(CCN5C[C@H](F)C[C@H](F)C5)c34)c(=O)c12 (atropisomer, axis not shown; (P)) [Example 573, N-[(1S)-1-[(3P)-3-(4-chloro-1-{2-[(3R,5S)-3,5-difluoropiperidin-1-yl]ethyl}-3-methanesulfonamido-1H-indazol-7-yl)-5-methyl-4-oxo-7-(1,4,4-trifluorocyclohexyl)-3H,4H-pyrido[2,3-d]pyrimidin-2-yl]-2-(3,5-difluorophenyl)ethyl]-2-[(2R,4R)-9-[(1R)-2,2-difluorocyclopropyl]-7,8-diazatricyclo[4.3.0.0^2,^4]nona-1(6),8-dien-7-yl]acetamide]",> 20000,12
"COCCCn1nc(NS(C)(=O)=O)c2c(Cl)ccc(-n3c([C@H](Cc4cc(F)cc(F)c4)NC(=O)Cn4nc(C(F)F)c5c4C(F)(F)[C@@H]4C[C@H]54)nc4nc(C5CCC(F)(F)CC5)cc(NCCC(C)(C)OC)c4c3=O)c21 (atropisomer, axis not shown; (P)) [Example 565, N-[(1S)-1-[(3P)-3-[4-chloro-3-methanesulfonamido-1-(3-methoxypropyl)-1H-indazol-7-yl]-7-(4,4-difluorocyclohexyl)-5-[(3-methoxy-3-methylbutyl)amino]-4-oxo-3H,4H-pyrido[2,3-d]pyrimidin-2-yl]-2-(3,5-difluorophenyl)ethyl]-2-[(2S,4R)-9-(difluoromethyl)-5,5-difluoro-7,8-diazatricyclo[4.3.0.0^2,^4]nona-1(6),8-dien-7-yl]acetamide]",> 20000,11
"Cc1cc(C2(F)CCC(F)(F)CC2)nc2nc([C@H](Cc3cc(F)cc(F)c3)NC(=O)Cn3nc(C(F)F)c4c3C(F)(F)[C@@H]3C[C@H]43)n(-c3ccc(Cl)c4c(NS(C)(=O)=O)nn([C@@H](C)CN5C[C@@H](C)O[C@@H](C)C5)c34)c(=O)c12 (atropisomer, axis not shown; (P)) [Example 747, N-[(1S)-1-[(3P)-3-{4-chloro-1-[(2S)-1-[(2R,6S)-2,6-dimethylmorpholin-4-yl]propan-2-yl]-3-methanesulfonamido-1H-indazol-7-yl}-5-methyl-4-oxo-7-(1,4,4-trifluorocyclohexyl)-3H,4H-pyrido[2,3-d]pyrimidin-2-yl]-2-(3,5-difluorophenyl)ethyl]-2-[(2S,4R)-9-(difluoromethyl)-5,5-difluoro-7,8-diazatricyclo[4.3.0.0^2,^4]nona-1(6),8-dien-7-yl]acetamide]",> 20000,17
